Activity calls are given as the source filed them. The calls are words filed in the database; no cut-off is given here.
Legend:
Rattus norvegicus = species on record: Rattus norvegicus; experiment: Selectivity ratio of inhibition of rat alpha-2,3-O-ST3GALI at 1000 uM to IC50 for inhibition of rat alpha-2,3-N-ST3GALIII
MDA-MB-231 [1] = experiment: Inhibition of Sialyltransferase in human MDA-MB-231 cells assessed as reduction in FAK Tyr397 phosphorylation level at 10 to 20 uM incubated for 48 hrs by immunoblot analysis; assay type: cell-based; details: dose 10-20 µM
MDA-MB-231 [2] = experiment: Inhibition of serum-induced cell migration of human MDA-MB-231 cells at 20 uM incubated for 16 hrs by Boyden chamber assay; assay type: functional, cell-based
MDA-MB-231 [3] = experiment: Inhibition of Sialyltransferase in human MDA-MB-231 cells assessed as suppression of sialylation of integrin subunit beta1/beta3/beta4/beta5 at 10 to 20 um after 48 hrs by Western blot analysis; assay type: cell-based; details: dose 10-20 µM
MDA-MB-231 [4] = experiment: Antitumor activity against luciferase-tagged human MDA-MB-231 cells xenografted in BALB/c mouse assessed as reduction in number of metastatic foci in lungs at 10 mg/kg/3 days, ip measured after 8 weeks by histological analysis; assay type: functional, organism-based
[5] = Toxicity in BALB/c mouse xenografted with luciferase-tagged human MDA-MB-231 cells assessed as effect on body weight at 10 mg/kg/3 days, ip measured after 8 weeks; assay type: organism-based; details: in vivo, 1344 h
[6] = Apparent permeability at pH 7.4 by PAMPA
MDA-MB-231 [7] = experiment: Inhibition of Sialyltransferase in human MDA-MB-231 cells assessed as reduction in IKKalpha/beta Ser176/180 phosphorylation level at 10 to 20 uM incubated for 48 hrs by immunoblot analysis; assay type: cell-based; details: dose 10-20 µM
MDA-MB-231 [8] = experiment: Inhibition of Sialyltransferase in human MDA-MB-231 cells assessed as reduction in integrin isoforms expression (alphaV/alpha5/beta1/beta3/beta4/beta5) at 10 to 20 uM incubated for 48 hrs by immunoblot analysis; assay type: cell-based; details: dose 10-20 µM
MDA-MB-231 [9] = experiment: Antitumor activity against luciferase-tagged human MDA-MB-231 cells xenografted in BALB/c mouse assessed as induction of delayed lung metastasis at 10 mg/kg/3 days, ip measured after 8 weeks; assay type: functional, organism-based
MDA-MB-231 [10] = experiment: Inhibition of Sialyltransferase in human MDA-MB-231 cells assessed as reduction in NFkappaB Ser536 phosphorylation level at 10 to 20 uM incubated for 48 hrs by immunoblot analysis; assay type: cell-based; details: dose 10-20 µM

C[C@H](CCC(=O)OCCOCCOCCN=[N+]=[N-])[C@H]1CC[C@H]2[C@@H]3CC[C@@H]4C[C@H](OC(=O)[C@H](CC(=O)O)Nc5ccc([N+](=O)[O-])c6nonc56)CC[C@]4(C)[C@H]3CC[C@]12C
Selectivity ratio (Rattus norvegicus): < 575 | inhibition (MDA-MB-231 [1]): Dose-dependent effect | inhibition (MDA-MB-231 [2]): Active | inhibition (MDA-MB-231 [3]): Active | Activity (MDA-MB-231 [4]): Active | Activity [5]: Non-Toxic | Papp [6]: 3.6 ×10⁻⁶ cm/s | inhibition (MDA-MB-231 [7]): Active | inhibition (MDA-MB-231 [8]): Dose-dependent effect | Activity (MDA-MB-231 [9]): Active | inhibition (MDA-MB-231 [10]): Active
